Results reported in PMC3955222 (Chembiochem : a European journal of chemical biology, 2013).

Biological target: T1, CODH ICh (Carboxydothermus hydrogenoformans, UniProt P59934)
T1 sequence (P59934 2-636): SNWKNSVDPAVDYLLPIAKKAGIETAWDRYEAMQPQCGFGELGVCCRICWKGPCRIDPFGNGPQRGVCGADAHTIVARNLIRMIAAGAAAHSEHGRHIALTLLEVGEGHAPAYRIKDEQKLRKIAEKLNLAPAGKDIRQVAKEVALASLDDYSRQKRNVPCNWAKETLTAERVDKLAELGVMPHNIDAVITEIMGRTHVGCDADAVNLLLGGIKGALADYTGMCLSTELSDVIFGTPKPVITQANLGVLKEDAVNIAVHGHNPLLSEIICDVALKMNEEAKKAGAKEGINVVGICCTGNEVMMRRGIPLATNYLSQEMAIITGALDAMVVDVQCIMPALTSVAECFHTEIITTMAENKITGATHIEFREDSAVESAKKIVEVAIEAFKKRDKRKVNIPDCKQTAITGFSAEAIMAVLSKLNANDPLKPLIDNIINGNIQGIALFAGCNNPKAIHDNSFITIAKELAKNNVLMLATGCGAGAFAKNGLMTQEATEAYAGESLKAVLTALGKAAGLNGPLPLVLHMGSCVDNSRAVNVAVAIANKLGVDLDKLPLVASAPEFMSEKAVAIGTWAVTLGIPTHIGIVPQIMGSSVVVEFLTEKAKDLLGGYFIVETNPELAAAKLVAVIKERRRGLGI
Format: biochemical

Structure (SMILES): N#CO [cyanate]
- chronoamperometry, inactivation half-time at 6.7 mM cyanate: ~ 90 seconds
